The values that follow come from ChEMBL document CHEMBL4007474, “Soluble epoxide hydrolase inhibitors of indolinone alkaloids and phenolic derivatives from Cimicifuga dahurica (Turcz.) Maxim” (Bioorg Med Chem Lett, 2017).

pIC50: −log10 of the molar value. Activity calls are given as the source filed them. The rule behind the calls is not given here.

Experiment [1] has as its target T1, Bifunctional epoxide hydrolase 2 (Homo sapiens) (UniProt P34913).
T1 sequence (whole entry): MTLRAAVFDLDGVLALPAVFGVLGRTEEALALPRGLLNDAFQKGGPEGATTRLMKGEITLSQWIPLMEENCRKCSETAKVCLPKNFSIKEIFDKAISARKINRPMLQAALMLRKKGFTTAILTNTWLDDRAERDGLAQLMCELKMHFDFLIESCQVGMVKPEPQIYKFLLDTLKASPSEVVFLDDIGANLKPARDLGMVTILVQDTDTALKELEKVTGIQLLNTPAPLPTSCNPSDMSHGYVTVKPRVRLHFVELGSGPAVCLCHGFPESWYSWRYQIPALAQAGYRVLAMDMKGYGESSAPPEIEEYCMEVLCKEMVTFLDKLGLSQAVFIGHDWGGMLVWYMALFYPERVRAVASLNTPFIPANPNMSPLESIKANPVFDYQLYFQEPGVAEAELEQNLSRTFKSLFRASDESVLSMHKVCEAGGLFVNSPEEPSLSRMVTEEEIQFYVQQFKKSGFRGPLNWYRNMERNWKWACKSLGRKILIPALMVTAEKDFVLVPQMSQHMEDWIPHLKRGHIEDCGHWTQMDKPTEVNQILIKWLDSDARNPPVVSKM
Briefly: Inhibition of sEH (unknown origin) at 100 uM using PHOME as substrate after 40 mins by fluorescence photometric method relative to control.

Experiment [2] addresses T1, Bifunctional epoxide hydrolase 2 (Homo sapiens). Briefly: (§1) Inhibition of sEH (unknown origin) using PHOME as substrate after 40 mins by fluorescence photometric method.
The target in experiment [3] is T2, Bifunctional epoxide hydrolase 2 (Homo sapiens, UniProt P34913).
T2 sequence (P34913 whole entry): T1 sequence (whole entry)
The description is as §1.

For experiment [4], the target named is T1, Bifunctional epoxide hydrolase 2 (Homo sapiens). As to the kind of experiment: Competitive inhibition of sEH (unknown origin) at 0.78 to 6.25 uM using PHOME as substrate measured for 30 mins by Lineweaver-burk plot method.
Experiment [5] has the same target. To be noted: 0.78 to 6.25 uM.
The target is the same in experiment [6]. As to the kind of experiment: Mixed type inhibition of sEH (unknown origin) at 0.78 to 6.25 uM using PHOME as substrate measured for 30 mins by Lineweaver-burk plot method.

Take `CC(C)=C/C=C1\C(=O)N(C)c2ccccc21`: the inhibition (in general, the relative decrease from the control value, in per cent) is 77% in experiment [1] and “Dose-dependent effect” in experiment [2]. In experiment [3], the pIC50 (in general, the IC50 on a negative log10 scale, so that one unit is a factor of ten) is 5.89. Moreover, the inhibition result in experiment [4] was “Active”.

Regarding `CC(C)=C/C=C1/C(=O)N(C)c2ccccc21`, the inhibition in experiment [1] was 80.2%; in experiment [2] it was “Dose-dependent effect”. The compound also had a pIC50 in experiment [3] of 6.10. For the same compound, the inhibition entry in experiment [4] was “Active”.

With `COc1ccc(/C=C/C(=O)OCC(=O)Cc2ccc(O)c(O)c2)cc1O` [CIMIRACEMATE A], the inhibition in experiment [1] was 104%; in experiment [2], “Dose-dependent effect”. This compound gave a negative logarithm of the IC50 (pIC50) in experiment [3] of 5.96. Further, the inhibition entry in experiment [5] was “Active”.

On to `O=C(/C=C/c1ccc(O)c(O)c1)O[C@@H]1C[C@](O)(C(=O)O)C[C@@H](OC(=O)/C=C/c2ccc(O)c(O)c2)[C@H]1O`, for which the inhibition in experiment [1] is 81.3%; in experiment [2] it was “Dose-dependent effect”. In experiment [3], the pIC50 is 5.55. In addition, the inhibition entry in experiment [6] is “Active”.

In the case of `COC(=O)/C=C/c1ccc(O)c(OC)c1`, the values for the inhibition in experiment [1] and in experiment [2] were 99.2% and “Dose-dependent effect”, respectively. The compound also had a negative logarithm of the IC50 (pIC50) in experiment [3] of 5.74. For the same compound, the inhibition entry in experiment [6] is “Active”.

Consider `COc1ccc(/C=C/C(=O)OCC(=O)c2ccc(O)c(O)c2)cc1O`, for which the values for the inhibition in experiment [1] and in experiment [2] were 98.3% and “Dose-dependent effect”, respectively. For the same compound, the pIC50 in experiment [3] was 5.80. Besides, in experiment [6], the inhibition result is “Active”.

In the case of `CC(C)=C/C=C1/C(=O)Nc2ccccc21`, the inhibition was 95.1% in experiment [1] and “Dose-dependent effect” in experiment [2]. In addition, the negative logarithm of the IC50 (pIC50) in experiment [3] was 6.00. For the same compound, the inhibition entry in experiment [4] was “Active”.
